Experimental data published in patent publication US20230090255A1, “MAGL INHIBITOR, PREPARATION METHOD THEREFOR AND USE THEREOF” (LUNAN PHARMACEUTICAL GROUP CORPORATION, priority 2019, published 2023).

Columns and labels:
[1] = test system: mice with inflammatory pain; test: Pain threshold of mice with inflammatory pain (complete Freund's adjuvant); format: in vivo, SD mice; settings: for Pain threshold: complete Freund's adjuvant paw model
Experimental: […] (180±20) g were injected with a complete Freund’s adjuvant (50 µL/piece) at the right rear plantar of mice, and mice in the control group were injected with the corresponding volume of 0.5% sodium carboxymethylcellulose to establish a paw edema inflammatory pain model. After modeling, the mice were administered for 7 d continuously, and administered intragastrically once per day. Pain thresholds (s) of the mice were respectively determined on the 1st, 3rd and 7th day before administration and after modeling at different periods of time.
Grouping and administration were the same as those of Example 40.

[2] = test system: reserpine-induced mice migraine; test: Reserpine-induced mice migraine; format: in vivo, ICR mice; settings: for Blood coagulation time: reserpine 0.2 mg/kg sc mice, 1 h after final administration; for brain tissue 5-HT / Times of tail suspension (struggling times within 2 min): reserpine mice; for Times of tail suspension (struggling times within 2 min): 9th day
Experimental: The mice in the blank control group and model group were administered intragastrically via a solvent from the 5th day after modeling, and the rest groups of mice were respectively administered corresponding medicaments and doses for intragastric administration for 10 consecutive days; 1 h later after the final administration, the mice were weighed; blood was taken at inner canthus to detect blood coagulation time; whole blood was taken, and cerebrum was taken on an ice and preserved at -20° C. for the subsequent experiment.
Behavioral test: tail suspension activity was performed; the position 1 cm away from the tail of the mice was glued by an adhesive tape on the 9th day of the test, and the adhesive tape was penetrated by a steel needle, and hung in a dark box such that the mice were hung upside down; then the mice struggling times (total number of overturning from hanging) within 2 min were observed.
The mice were weighed 1 h later after the final administration; blood of inner canthus was taken via a capillary to detect the blood coagulation time.
Blood was taken to detect the content of 5-HT in serum via high-performance liquid chromatography. Cerebrum was taken on an ice and precooled and cleaned slightly with 0.5% sodium carboxymethylcellulose, and then sucked dry with a filter paper, and placed into a cryogenic tube, and preserved at -20° C. for further use, then the content of 5-HT in brain tissues was detected by high performance liquid chromatography.
5-HT test method: a sample was precipitated with 10% perchloric acid solution according to 1:1, and then centrifuged to take supernatant for test. Chromatographic conditions: the chromatographic column is a SHIMADZU VP-ODS C18 column (250*4.6 mm, 5 um), the mobile phase is a methanol-0.01 mol/L potassium acetate buffer solution (10:90, V/V, PH is adjusted to 4.00 with 0.2 mol/L citric acid) for gradient elution; the column temperature is 25° C., flow rate is 1.00 ml/min and test wavelength is 275 nm.

[3] = test system: mice writhing caused by acetic acid; test: Mice writhing caused by acetic acid; settings: for Writhing times: 1 h before 0.7% acetic acid ip, within 20 min; for Latent time: time to first writhing; for Inhibition ratio: writhing inhibition
Experimental: Each compound was prepared into a suspension by 0.5% sodium carboxymethylcellulose respectively, and then set according to the dose, and each administration group was administered intragastrically; the model group was administered intragastrically an equal volume of 0.5% sodium carboxymethylcellulose.
Mice were intraperitoneally injected with acetic acid to cause a large area and more lasting painful stimuli in deep enterocoelia, causing mice to produce writhing responses. After being administered for 1 h, each dose group was intraperitoneally injected with 0.7% acetic acid-normal saline solution (0.1 ml/10 g).
The time (pain latent time) that the mice started to appear writhing after being intraperitoneally injected with acetic acid was recorded.
The writhing response times of each mouse within 20 min were recorded after injecting acetic acid to cause pain, and then, the writhing inhibition ratio of each administration group was calculated.
Writhing inhibition ratio = [(writhing times of the control group -writhing times of the administration group)/writhing times of the control group] × 100%
Experimental data is shown by x±s and subjected to variance analysis by SPSS 15.0 software.

[4] = test system: mice pain response induced by hot plate; test: Mice pain response induced by hot plate; format: in vivo, ICR mice; settings: for Pain threshold: hot plate 55°C
Experimental: Female ICR mice (20±2) g were placed on an intelligent hot plate at 55±0.5° C., and latency (s) that the plantar of mice touched the hot plate until the occurrence of a hind paws licking response served as a pain threshold indicator; the mice (response latency <5 s or >30 s) or jumping mice were eliminated.
Grouping and administration were the same as those in Example 40.
The mice were continuously administered intragastrically for 7 consecutive days; the pain threshold of each group of mice was respectively determined once at 30, 60, 90 and 120 min after the final administration; the pain threshold greater than 60 s was calculated by 60 s.

ulcerative colitis mice = test: Mice ulcerative colitis (DSS); format: in vivo, BALB/c mice; settings: for Total times of hematochezia within the four periods / Colon length / IL-1 content: DSS mice; for Colon length: four periods; for IL-1 content: serum, ELISA
Description: Healthy male SPF-level BALB/c mice (8-week old and body mass: (20±2) g).
Modeling: the mice were randomly divided into […] at the end of the quarantine, 10 pieces for each group. The mice in the normal group drank normal water freely, and the rest groups of mice drank 1.0%-1.5% DSS solution freely for modeling, 7 d later after modeling, the mice in the modeling group drank normal water freely for 7 d, and 14 d served as a modeling period for four continuous periods, and the mice in the modeling group were administered at the same time.
End point of the experiment: experimental administration was performed for four periods, and dissection was performed on the 3rd and 4th day of the recovery period of the 4th period.
Test indicators: the mice were weighed twice a week after the beginning of the administration; diarrhea and hematochezia of the mice were observed, and times of hematochezia were recorded.
At the end of the experiment, the mice were dissected and weighed, and narcotized to take blood, then serum was preserved at -80° C. Spleen was taken and weighed to calculate the spleen index. The content of IL-1β in serum was detected via ELISA. Colorectum was cut and taken to measure the length of colorectum, then immobilized by formaldehyde and dyed by HE to detect the pathological change.

[5] = high dose 30 mg/kg ig once per day, 0 d
[6] = high dose 30 mg/kg ig once per day, 1 d
[7] = high dose 30 mg/kg ig once per day, 3 d
[8] = high dose 30 mg/kg ig once per day, 7 d
[9] = low dose 7.5 mg/kg ig once per day, 0 d
[10] = low dose 7.5 mg/kg ig once per day, 1 d
[11] = low dose 7.5 mg/kg ig once per day, 3 d
[12] = low dose 7.5 mg/kg ig once per day, 7 d
[13] = middle dose 15 mg/kg ig once per day, 0 d
[14] = middle dose 15 mg/kg ig once per day, 1 d
[15] = middle dose 15 mg/kg ig once per day, 3 d
[16] = middle dose 15 mg/kg ig once per day, 7 d
[17] = high dose 30 mg/kg ig 7 d, 30 min after final administration
[18] = high dose 30 mg/kg ig 7 d, 60 min
[19] = high dose 30 mg/kg ig 7 d, 90 min
[20] = high dose 30 mg/kg ig 7 d, 120 min
[21] = low dose 7.5 mg/kg ig 7 d, 30 min after final administration
[22] = low dose 7.5 mg/kg ig 7 d, 60 min
[23] = low dose 7.5 mg/kg ig 7 d, 90 min
[24] = low dose 7.5 mg/kg ig 7 d, 120 min
[25] = middle dose 15 mg/kg ig 7 d, 30 min after final administration
[26] = middle dose 15 mg/kg ig 7 d, 60 min
[27] = middle dose 15 mg/kg ig 7 d, 90 min
[28] = middle dose 15 mg/kg ig 7 d, 120 min

## O=C(Nc1cccc(Cl)c1)C1CCN(C(=O)c2cc3cc(F)ccc3[nH]2)CC1 [MAGLZ-II-18 (a)]
[1]; compared with the model group
  pain threshold of the mice with inflammatory pain, in words: significantly extend
[1]; [5]
  Pain threshold: 12.85 ± 2.26 s
[1]; [6]
  Pain threshold: 7.49±0.79^∗∗∗ s
[1]; [7]
  Pain threshold: 9.35±1.2^∗∗∗ s
[1]; [8]
  Pain threshold: 10.37±1.59^∗∗∗ s
[1]; [9]
  Pain threshold: 12.73 ± 2.43 s
[1]; [10]
  Pain threshold: 6.97±0.87^∗∗ s
[1]; [11]
  Pain threshold: 8.44±1.03^∗∗∗ s
[1]; [12]
  Pain threshold: 9.56±0.92^∗∗ s
[1]; [13]
  Pain threshold: 12.86 ± 2.25 s
[1]; [14]
  Pain threshold: 7.26±0.70^∗∗∗ s
[1]; [15]
  Pain threshold: 9.01±0.68^∗∗∗ s
[1]; [16]
  Pain threshold: 10.37±1.49^∗∗∗ s
[2]; compared with the model group
  blood coagulation time, in words: significantly extend
  level of 5-HT in the brain tissue, in words: significantly increase
  times of the tail suspension activity, in words: significantly increase
[2]; high dose 30 mg/kg ig 10 d
  Blood coagulation time: 252.25±30.99 S
  brain tissue 5-HT: 2.76 ± 0.34 nmol/g
[2]; low dose 7.5 mg/kg ig 10 d
  Blood coagulation time: 137.25±67.22 S
  brain tissue 5-HT: 1.21 ± 0.17 nmol/g
[2]; middle dose 15 mg/kg ig 10 d
  Blood coagulation time: 191.50±63.66 S
  brain tissue 5-HT: 1.65 ± 0.18 nmol/g
[2]; high dose 30 mg/kg ig
  Times of tail suspension (struggling times within 2 min): 18.50±2.00
[2]; low dose 7.5 mg/kg ig
  Times of tail suspension (struggling times within 2 min): 11.38±2.67
[2]; middle dose 15 mg/kg ig
  Times of tail suspension (struggling times within 2 min): 13.38±2.67
[3]; compared with the model group
  latent time, in words: extend
  mice writhing times caused by acetic acid, in words: significantly decrease
[3]; high dose 30 mg/kg ig
  Writhing times: 17.8±11.1
  Latent time: 422.4 ± 137.9 s
  Inhibition ratio: 54.7%
[3]; low dose 7.5 mg/kg ig
  Writhing times: 24.2±8.5
  Latent time: 355.5 ± 136.5 s
  Inhibition ratio: 38.4%
[3]; middle dose 15 mg/kg ig
  Writhing times: 20.8±12.5
  Latent time: 380.7 ± 130.7 s
  Inhibition ratio: 47.1%
[4]; compared with the model group
  pain thresholds of the thermal-stimulus mice, in words: significantly extend
[4]; [17]
  Pain threshold: 40.86 ± 7.17 s
[4]; [18]
  Pain threshold: 46.29 ± 5.27 s
[4]; [19]
  Pain threshold: 48.70 ± 5.73 s
[4]; [20]
  Pain threshold: 47.04 ± 5.54 s
[4]; [21]
  Pain threshold: 34.62 ± 6.65 s
[4]; [22]
  Pain threshold: 40.29 ± 6.73 s
[4]; [23]
  Pain threshold: 43.98 ± 6.55 s
[4]; [24]
  Pain threshold: 43.56 ± 6.01 s
[4]; [25]
  Pain threshold: 37.51 ± 6.07 s
[4]; [26]
  Pain threshold: 42.42 ± 5.90 s
[4]; [27]
  Pain threshold: 45.86 ± 7.09 s
[4]; [28]
  Pain threshold: 44.38 ± 5.44 s
Ulcerative colitis mice; high dose 30 mg/kg ig
  Total times of hematochezia within the four periods: 27.90±7.28
  Colon length: 7.72±0.92 cm
  IL-1 content: 36.22 ± 4.31 pg/mL
Ulcerative colitis mice; low dose 7.5 mg/kg ig
  Total times of hematochezia within the four periods: 33.60±5.83
  Colon length: 6.51±0.90 cm
  IL-1 content: 47.32 ± 9.06 pg/mL
Ulcerative colitis mice; middle dose 15 mg/kg ig
  Total times of hematochezia within the four periods: 29.90±8.95
  Colon length: 7.06±1.20 cm
  IL-1 content: 43.77 ± 10.69 pg/mL
Ulcerative colitis mice; compared with the model group
  IL-1 content, in words: decrease
  colon length, in words: significantly increase
  total times of hematochezia, in words: reduce

## O=C(Nc1ccc(Cl)cc1)C1CCN(C(=O)c2ccc(O)cc2)CC1 [MAGLZ-II-10]
[1]; [5]
  Pain threshold: 12.93 ± 2.26 s
[1]; [6]
  Pain threshold: 5.67 ± 0.93 s
[1]; [7]
  Pain threshold: 7.95 ± 0.66 s
[1]; [8]
  Pain threshold: 8.93 ± 0.61 s
[1]; [9]
  Pain threshold: 12.71 ± 2.47 s
[1]; [10]
  Pain threshold: 5.59 ± 0.89 s
[1]; [11]
  Pain threshold: 7.15 ± 0.59 s
[1]; [12]
  Pain threshold: 8.33 ± 0.57 s
[1]; [13]
  Pain threshold: 12.77 ± 2.48 s
[1]; [14]
  Pain threshold: 5.62 ± 0.84 s
[1]; [15]
  Pain threshold: 7.18 ± 0.55 s
[1]; [16]
  Pain threshold: 8.36 ± 0.59 s
[2]; high dose 30 mg/kg ig 10 d
  Blood coagulation time: 148.00±30.23 S
  brain tissue 5-HT: 0.90 ± 0.21 nmol/g
[2]; low dose 7.5 mg/kg ig 10 d
  Blood coagulation time: 113.25±23.31 S
  brain tissue 5-HT: 0.85 ± 0.20 nmol/g
[2]; middle dose 15 mg/kg ig 10 d
  Blood coagulation time: 125.25±19.31 S
  brain tissue 5-HT: 1.05 ± 0.14 nmol/g
[2]; high dose 30 mg/kg ig
  Times of tail suspension (struggling times within 2 min): 11.63±1.85
[2]; low dose 7.5 mg/kg ig
  Times of tail suspension (struggling times within 2 min): 9.25±2.66
[2]; middle dose 15 mg/kg ig
  Times of tail suspension (struggling times within 2 min): 10.63±1.19
[3]; high dose 30 mg/kg ig
  Writhing times: 24.8±11.1^∗
  Latent time: 306.4±90.2^∗ s
[3]; low dose 7.5 mg/kg ig
  Writhing times: 34.0±9.1
  Latent time: 235.4 ± 59.6 s
[3]; middle dose 15 mg/kg ig
  Writhing times: 32.8±11.6
  Latent time: 246.2 ± 69.5 s
[4]; [17]
  Pain threshold: 17.73 ± 6.20 s
[4]; [18]
  Pain threshold: 19.77 ± 6.73 s
[4]; [19]
  Pain threshold: 25.25 ± 7.01 s
[4]; [20]
  Pain threshold: 24.90 ± 5.73 s
[4]; [21]
  Pain threshold: 16.37 ± 6.00 s
[4]; [22]
  Pain threshold: 17.93 ± 5.75 s
[4]; [23]
  Pain threshold: 19.24 ± 4.72 s
[4]; [24]
  Pain threshold: 19.14 ± 4.63 s
[4]; [25]
  Pain threshold: 16.67 ± 5.97 s
[4]; [26]
  Pain threshold: 18.79 ± 5.95 s
[4]; [27]
  Pain threshold: 22.43 ± 5.31 s
[4]; [28]
  Pain threshold: 20.60 ± 4.64 s
Ulcerative colitis mice; high dose 30 mg/kg ig
  Total times of hematochezia within the four periods: 35.15±4.52
  Colon length: 6.35±0.61 cm
  IL-1 content: 47.25 ± 6.37 pg/mL
Ulcerative colitis mice; low dose 7.5 mg/kg ig
  Total times of hematochezia within the four periods: 38.40±5.02
  Colon length: 5.92±0.66 cm
  IL-1 content: 51.81 ± 7.86 pg/mL
Ulcerative colitis mice; middle dose 15 mg/kg ig
  Total times of hematochezia within the four periods: 38.20±7.83
  Colon length: 5.72±0.60 cm
  IL-1 content: 50.83 ± 7.79 pg/mL
